Legend:
Conditions in all cases: Compound concentration 1.0 uM
[1] = molecular target: Cyclin-dependent kinase 2/cyclin E (Homo sapiens) (UniProt P24864+P24941+O96020)
[2] = molecular target: Insulin receptor (Homo sapiens) (UniProt P06213)
[3] = molecular target: Mitogen-activated protein kinase 9 (Homo sapiens) (UniProt P45984)
[4] = molecular target: Serine/threonine-protein kinase PAK 6 (Homo sapiens) (UniProt Q9NQU5)
[5] = molecular target: T1, Serine/threonine-protein kinase D2 (Homo sapiens) (UniProt Q9BZL6)
T1 sequence (whole entry): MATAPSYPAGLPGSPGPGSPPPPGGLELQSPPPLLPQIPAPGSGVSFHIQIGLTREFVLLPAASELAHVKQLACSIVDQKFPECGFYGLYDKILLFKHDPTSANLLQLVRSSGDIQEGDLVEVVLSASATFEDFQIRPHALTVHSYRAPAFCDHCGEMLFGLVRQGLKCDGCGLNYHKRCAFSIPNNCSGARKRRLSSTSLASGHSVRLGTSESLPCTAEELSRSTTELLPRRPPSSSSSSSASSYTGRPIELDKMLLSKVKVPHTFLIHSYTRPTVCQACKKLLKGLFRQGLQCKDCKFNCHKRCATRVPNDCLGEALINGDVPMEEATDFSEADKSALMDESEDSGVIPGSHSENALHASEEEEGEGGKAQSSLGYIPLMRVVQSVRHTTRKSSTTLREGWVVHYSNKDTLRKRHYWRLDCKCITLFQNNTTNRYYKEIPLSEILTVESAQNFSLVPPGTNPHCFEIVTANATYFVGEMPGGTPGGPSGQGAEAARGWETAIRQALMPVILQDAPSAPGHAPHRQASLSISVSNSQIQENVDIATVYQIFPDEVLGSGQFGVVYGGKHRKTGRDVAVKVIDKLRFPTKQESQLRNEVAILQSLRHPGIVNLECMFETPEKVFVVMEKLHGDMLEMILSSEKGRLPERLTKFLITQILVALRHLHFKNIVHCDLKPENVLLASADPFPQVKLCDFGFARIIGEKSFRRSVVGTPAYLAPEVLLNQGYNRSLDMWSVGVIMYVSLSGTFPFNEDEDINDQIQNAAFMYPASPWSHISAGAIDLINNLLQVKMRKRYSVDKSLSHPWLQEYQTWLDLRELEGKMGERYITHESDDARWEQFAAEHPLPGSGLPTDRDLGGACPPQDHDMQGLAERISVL

[6] = molecular target: Serine/threonine-protein kinase PLK1 (Homo sapiens) (UniProt P53350)
Serine/threonine-protein kinase PLK1 (Homo sapiens), sequence (P53350 whole entry): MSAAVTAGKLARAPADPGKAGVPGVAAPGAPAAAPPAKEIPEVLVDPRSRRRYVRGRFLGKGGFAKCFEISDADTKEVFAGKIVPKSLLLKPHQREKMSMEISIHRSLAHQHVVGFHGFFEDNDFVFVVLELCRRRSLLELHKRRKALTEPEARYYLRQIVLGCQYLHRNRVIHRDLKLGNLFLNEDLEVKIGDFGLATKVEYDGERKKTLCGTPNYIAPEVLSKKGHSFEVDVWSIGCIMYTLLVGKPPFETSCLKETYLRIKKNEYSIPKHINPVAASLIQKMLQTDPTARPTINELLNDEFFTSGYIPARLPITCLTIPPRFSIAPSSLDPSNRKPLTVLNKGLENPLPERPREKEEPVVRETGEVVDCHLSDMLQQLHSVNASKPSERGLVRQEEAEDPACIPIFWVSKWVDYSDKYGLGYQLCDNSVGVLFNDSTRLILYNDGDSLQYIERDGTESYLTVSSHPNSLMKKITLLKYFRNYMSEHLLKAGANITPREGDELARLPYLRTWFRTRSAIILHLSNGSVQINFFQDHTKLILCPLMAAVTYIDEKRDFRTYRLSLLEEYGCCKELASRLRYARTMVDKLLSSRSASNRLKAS

[7] = molecular target: Protein-tyrosine kinase 2-beta (Homo sapiens) (UniProt Q14289)
[8] = molecular target: T2, Mitogen-activated protein kinase 13 (Homo sapiens) (UniProt O15264)
T2 sequence (whole entry): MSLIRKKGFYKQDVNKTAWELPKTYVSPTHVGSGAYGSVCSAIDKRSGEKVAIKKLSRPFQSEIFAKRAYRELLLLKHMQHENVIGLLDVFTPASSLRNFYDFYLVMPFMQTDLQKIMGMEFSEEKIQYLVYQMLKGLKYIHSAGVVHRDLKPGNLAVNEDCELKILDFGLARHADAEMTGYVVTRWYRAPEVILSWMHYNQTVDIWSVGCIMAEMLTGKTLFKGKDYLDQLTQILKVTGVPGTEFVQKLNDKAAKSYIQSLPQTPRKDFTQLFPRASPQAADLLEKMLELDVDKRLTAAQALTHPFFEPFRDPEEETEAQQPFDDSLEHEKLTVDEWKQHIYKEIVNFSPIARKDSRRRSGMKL

[9] = molecular target: TGF-beta receptor type-2 (Homo sapiens) (UniProt P37173)
TGF-beta receptor type-2 (Homo sapiens), sequence (P37173 whole entry): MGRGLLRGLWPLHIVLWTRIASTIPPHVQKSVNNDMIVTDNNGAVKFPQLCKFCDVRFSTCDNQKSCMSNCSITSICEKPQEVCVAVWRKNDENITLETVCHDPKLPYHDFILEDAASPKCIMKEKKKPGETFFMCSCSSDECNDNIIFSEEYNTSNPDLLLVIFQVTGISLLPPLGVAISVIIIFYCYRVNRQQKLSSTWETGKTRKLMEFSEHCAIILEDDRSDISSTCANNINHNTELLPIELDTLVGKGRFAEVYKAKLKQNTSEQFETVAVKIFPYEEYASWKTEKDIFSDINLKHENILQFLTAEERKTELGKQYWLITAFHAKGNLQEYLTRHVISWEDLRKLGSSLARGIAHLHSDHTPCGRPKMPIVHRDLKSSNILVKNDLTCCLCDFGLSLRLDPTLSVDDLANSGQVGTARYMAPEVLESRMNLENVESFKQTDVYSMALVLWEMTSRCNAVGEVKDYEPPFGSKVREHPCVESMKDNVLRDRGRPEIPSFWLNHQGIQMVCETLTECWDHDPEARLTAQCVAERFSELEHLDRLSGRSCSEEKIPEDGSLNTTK

[10] = molecular target: Angiopoietin-1 receptor (Homo sapiens) (UniProt Q02763)
[11] = molecular target: T3, Dual specificity protein kinase TTK (Homo sapiens) (UniProt P33981)
T3 sequence (whole entry): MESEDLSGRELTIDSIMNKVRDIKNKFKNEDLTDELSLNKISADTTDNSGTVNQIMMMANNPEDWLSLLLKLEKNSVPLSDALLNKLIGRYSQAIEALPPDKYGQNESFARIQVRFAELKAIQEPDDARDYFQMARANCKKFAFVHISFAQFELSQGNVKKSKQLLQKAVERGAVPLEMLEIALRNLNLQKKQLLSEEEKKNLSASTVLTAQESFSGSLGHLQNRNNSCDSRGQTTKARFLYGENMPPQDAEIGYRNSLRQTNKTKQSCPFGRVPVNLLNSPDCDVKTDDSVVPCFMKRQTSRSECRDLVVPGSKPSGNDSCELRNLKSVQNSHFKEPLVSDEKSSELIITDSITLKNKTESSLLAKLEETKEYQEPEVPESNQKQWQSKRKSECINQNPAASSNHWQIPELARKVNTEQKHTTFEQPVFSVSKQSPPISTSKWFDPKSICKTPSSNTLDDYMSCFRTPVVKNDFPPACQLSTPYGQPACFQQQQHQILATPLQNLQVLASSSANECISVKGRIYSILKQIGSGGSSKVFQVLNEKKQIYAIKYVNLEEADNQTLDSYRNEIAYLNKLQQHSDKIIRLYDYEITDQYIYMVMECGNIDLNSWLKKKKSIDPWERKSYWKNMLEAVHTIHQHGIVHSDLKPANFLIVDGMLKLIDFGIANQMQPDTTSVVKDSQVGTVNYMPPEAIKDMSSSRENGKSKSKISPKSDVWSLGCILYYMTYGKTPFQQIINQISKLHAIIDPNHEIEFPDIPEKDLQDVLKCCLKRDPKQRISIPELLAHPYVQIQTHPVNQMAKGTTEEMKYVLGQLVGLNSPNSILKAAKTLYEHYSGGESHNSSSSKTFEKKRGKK

[12] = molecular target: Serine-protein kinase ATM (Homo sapiens) (UniProt Q13315)
Serine-protein kinase ATM (Homo sapiens), sequence (Q13315 whole entry): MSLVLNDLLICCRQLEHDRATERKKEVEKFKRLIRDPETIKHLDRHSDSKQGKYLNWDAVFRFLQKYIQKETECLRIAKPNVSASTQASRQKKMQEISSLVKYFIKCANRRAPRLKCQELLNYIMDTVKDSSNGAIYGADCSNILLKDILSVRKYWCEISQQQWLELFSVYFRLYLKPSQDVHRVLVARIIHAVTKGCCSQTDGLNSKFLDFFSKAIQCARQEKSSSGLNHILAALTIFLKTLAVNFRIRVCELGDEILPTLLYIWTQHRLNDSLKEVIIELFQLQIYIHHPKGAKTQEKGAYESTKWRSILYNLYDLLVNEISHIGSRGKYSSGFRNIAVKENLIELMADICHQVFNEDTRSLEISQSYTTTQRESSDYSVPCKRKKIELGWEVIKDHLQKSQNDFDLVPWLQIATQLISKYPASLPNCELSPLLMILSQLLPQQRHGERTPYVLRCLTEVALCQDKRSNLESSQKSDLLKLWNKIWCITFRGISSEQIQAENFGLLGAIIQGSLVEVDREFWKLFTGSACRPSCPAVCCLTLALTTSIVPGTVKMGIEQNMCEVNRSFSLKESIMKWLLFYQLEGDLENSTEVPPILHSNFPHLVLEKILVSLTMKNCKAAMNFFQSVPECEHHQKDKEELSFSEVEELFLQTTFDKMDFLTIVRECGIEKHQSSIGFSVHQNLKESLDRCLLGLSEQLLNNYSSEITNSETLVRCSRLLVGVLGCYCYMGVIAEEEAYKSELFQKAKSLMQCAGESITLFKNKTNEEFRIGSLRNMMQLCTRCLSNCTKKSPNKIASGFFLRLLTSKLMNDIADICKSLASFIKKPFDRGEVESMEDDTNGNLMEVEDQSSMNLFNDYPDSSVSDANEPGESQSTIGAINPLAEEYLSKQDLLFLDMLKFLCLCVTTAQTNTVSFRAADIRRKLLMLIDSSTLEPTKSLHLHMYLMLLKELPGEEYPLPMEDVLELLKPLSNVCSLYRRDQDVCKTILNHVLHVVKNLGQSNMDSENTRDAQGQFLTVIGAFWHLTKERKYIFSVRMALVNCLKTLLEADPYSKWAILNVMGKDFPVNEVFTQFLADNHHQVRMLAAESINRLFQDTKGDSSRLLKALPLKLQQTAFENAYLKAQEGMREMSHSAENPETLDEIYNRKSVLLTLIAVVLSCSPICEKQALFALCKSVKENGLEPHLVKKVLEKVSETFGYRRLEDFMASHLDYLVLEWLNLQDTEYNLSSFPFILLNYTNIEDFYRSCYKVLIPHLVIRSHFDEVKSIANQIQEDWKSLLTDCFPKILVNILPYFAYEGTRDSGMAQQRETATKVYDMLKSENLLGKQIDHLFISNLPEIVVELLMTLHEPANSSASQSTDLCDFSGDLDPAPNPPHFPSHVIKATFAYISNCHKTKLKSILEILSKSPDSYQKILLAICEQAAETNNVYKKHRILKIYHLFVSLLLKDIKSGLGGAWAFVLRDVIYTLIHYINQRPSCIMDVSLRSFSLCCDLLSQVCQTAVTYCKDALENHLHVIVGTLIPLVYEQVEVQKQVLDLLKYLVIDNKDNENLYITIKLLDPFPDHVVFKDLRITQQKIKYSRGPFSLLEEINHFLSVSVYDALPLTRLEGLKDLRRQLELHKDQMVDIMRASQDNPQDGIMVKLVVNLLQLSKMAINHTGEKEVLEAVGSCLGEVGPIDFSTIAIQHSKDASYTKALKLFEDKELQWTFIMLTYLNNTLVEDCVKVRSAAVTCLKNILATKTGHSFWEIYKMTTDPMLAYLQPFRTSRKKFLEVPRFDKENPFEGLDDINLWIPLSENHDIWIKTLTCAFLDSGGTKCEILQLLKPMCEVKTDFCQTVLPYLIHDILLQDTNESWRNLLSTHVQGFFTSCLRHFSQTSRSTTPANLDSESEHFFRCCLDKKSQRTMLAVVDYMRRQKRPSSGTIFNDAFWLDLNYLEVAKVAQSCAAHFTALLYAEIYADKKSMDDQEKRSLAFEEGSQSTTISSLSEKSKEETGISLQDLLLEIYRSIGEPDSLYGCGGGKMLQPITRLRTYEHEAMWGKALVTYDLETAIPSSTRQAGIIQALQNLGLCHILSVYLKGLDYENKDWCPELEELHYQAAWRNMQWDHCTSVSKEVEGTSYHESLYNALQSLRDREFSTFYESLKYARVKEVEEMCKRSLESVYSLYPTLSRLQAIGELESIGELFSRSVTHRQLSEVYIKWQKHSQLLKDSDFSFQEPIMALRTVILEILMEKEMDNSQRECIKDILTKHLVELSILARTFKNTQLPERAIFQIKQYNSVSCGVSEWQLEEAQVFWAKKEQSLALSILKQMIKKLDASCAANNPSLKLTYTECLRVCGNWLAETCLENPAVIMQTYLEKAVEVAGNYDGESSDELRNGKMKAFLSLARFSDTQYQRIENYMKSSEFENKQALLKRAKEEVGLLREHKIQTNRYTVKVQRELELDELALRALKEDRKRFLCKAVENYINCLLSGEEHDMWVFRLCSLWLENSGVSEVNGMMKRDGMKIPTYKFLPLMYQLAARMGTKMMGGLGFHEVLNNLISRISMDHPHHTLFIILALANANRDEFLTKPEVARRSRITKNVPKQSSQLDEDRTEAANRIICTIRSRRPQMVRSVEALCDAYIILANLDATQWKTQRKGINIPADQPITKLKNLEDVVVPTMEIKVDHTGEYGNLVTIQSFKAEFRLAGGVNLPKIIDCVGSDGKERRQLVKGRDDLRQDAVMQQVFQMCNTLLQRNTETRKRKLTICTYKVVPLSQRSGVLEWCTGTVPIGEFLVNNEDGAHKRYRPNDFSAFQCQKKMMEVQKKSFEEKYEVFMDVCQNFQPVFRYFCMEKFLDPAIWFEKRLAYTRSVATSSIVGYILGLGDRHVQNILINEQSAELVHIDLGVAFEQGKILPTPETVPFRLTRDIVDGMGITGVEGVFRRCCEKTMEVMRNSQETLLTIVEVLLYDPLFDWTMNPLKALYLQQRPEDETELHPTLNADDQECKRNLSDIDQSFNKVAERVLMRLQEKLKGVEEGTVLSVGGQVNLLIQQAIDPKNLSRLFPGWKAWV

Measured: % residual kinase activity

Mitogen-activated protein kinase 9 (Homo sapiens), sequence (P45984 whole entry, looked up): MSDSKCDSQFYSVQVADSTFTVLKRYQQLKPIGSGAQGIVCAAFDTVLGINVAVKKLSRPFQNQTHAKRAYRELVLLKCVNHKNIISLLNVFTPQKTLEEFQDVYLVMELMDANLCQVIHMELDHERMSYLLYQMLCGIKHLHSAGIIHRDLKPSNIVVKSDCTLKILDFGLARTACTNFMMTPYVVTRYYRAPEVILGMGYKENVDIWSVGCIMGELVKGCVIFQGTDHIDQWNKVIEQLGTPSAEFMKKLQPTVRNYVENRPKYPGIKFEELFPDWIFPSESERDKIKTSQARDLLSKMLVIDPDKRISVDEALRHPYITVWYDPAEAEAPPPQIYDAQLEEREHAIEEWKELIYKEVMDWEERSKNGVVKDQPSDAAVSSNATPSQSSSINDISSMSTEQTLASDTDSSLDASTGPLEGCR

CN1CCN(c2cnc3c(C4CCN(C(=O)c5ccc(OC(F)(F)F)cc5N)CC4)ncnc3c2)CC1 [BAY-885]
inactive: [1] 99% | [2] 107% | [3] 104% | [4] 103% | [5] 106% | [6] 115% | [7] 103% | [8] 112% | [9] 108% | [10] 84% | [11] 93% | [12] 107%

From ChEMBL document CHEMBL4507268 (2021)
